Experimental data from patent EP4342468A1, “TOLEBRUTINIB SALT AND CRYSTAL FORM THEREOF, PREPARATION METHOD THEREFOR, PHARMACEUTICAL COMPOSITION THEREOF, AND USE THEREOF” (Hangzhou Solipharma Co., Ltd., priority 2021, dated 2022).
Where a name gives a salt, the structure may show the parent alone. Each block holds one compound with its values, some of them ahead of it.

How the values were obtained:
Type in all cases: physicochemical
[1] = Stability study of the solid forms under long-term, accelerated, light and oxidation conditions (HPLC and XRPD); details: for Purity after placing / Purity after: HPLC; for Purity after placing: initial purity 99.46%; for Sample after placing / crystal form after storage: XRPD; for Purity after: initial purity 99.50%
Procedure: In this application, X-ray powder diffraction (XRPD) data were collected using a BrukerD8 Advance diffractometer; parameters are as follows: Cu radiation; wavelength: 1.54Å; Current voltage: 40KV, 40mA; Scan range: 3 to 40°2θ.
In this application, the HPLC parameters for chemical stability and solubility are as follows:
An appropriate amount of Form 2 of tolebrutinib monohydrochloride prepared in example 2-1 of this application was placed under long-term (25°C/60% RH/open), accelerated (40°C/75% RH/open), light (25°C/4500lx/closed), and oxidation (in a urea peroxide atmosphere) conditions. Table 1 Stability of Form 2 of tolebrutinib monohydrochloride
An appropriate amount of tolebrutinib monohydrochloride Form1 sample prepared in Example 3-1 of this application was taken and placed under long-term (25°C/60% RH/open) and accelerated (40°C/75% RH/open) conditions, HPLC and XRPD testing were regularly conducted. Table 2 Stability of Form 1 of tolebrutinib monohydrochloride

[2] = Solubility in water (supersaturated solution, content by HPLC); details: for Solubility: 2 hours, monohydrochloride
From the text: In this application, the HPLC parameters for chemical stability and solubility are as follows: […]

[3] = Dynamic vapor sorption (DVS) hygroscopicity
Procedure: In this application, dynamic moisture adsorption analysis (DVS) data and isothermal adsorption analysis data were obtained using a TA Instruments Q5000 TGA; parameters are as follows: temperature: 25°C; relative humidity range: 0%RH-80%RH; dm/dt =0.001%/min; equilibration time: 90min; gas: N2; sample pan: platinum pan.

[4] = Compressibility study (tablet compression, hardness, tensile strength); details: for hardness: radial breaking force, tablet hardness tester, main pressure 1.8 KN; for diameters / thicknesses: tablet, Φ7.5mm punch, mean main pressure 1.8 KN
Procedure: The tablet compression was conducted using a Tianxiang rotary tablet press. A circular punch with a diameter of 7.5 mm (Φ7.5mm), a filling depth of 17.9 mm and a mean main pressure of 1.8 KN were used. The tablets' radial breaking force (hardness, H) was measured using a tablet hardness tester. The tablets' diameter (D) and thickness (L) were measured using a vernier caliper. The tensile strength (T) of the powder was calculated using the formula T=2H/πDL*9.8. The results are shown in Table 5: Table 5 Compressibility of Form 2 of tolebrutinib monohydrochloride and Form 1 of tolebrutinib monohydrochloride

[5] = Stability of the crystal form in tablets (XRPD before and after storage); details: 25°C/60% RH
Procedure: (§1) Following the formulation in Table 6, API, lactose hydrate, polyvinylpyrrolidone, hydroxypropyl cellulose, microcrystalline cellulose and magnesium stearate were mixed and compressed to obtain a tablet core. Subsequently, the tablet cores were coated with a solution/suspension for film coating. Table 6 Tablet formulations
The tablets containg Form 2 of tolebrutinib monohydrochloride Form 2 tablets and Form 1 of tolebrutinib monohydrochloride were placed at 25°C/60% RH for 14 days, respectively. XRPD tests were performed before and after storage. The XRPD comparison plots before and after storage are shown in FIG. 26 and FIG. 27, respectively.

[6] = Crystal form before and after the tableting process (XRPD)
From the text: as §1

[7] = Stability study of the solid forms under long-term, accelerated, light and oxidation conditions (HPLC and XRPD); details: long-term (25°C/60%RH) and accelerated (40°C/75%RH) conditions for 14 days; XRPD
[8] = light (25°C/4500lx/closed) and oxidation (in a urea peroxide atmosphere) conditions
[9] = listed as Form 1 of monohydrochloride
[10] = light, 25°C/45001x/closed, 14 days
[11] = long-term (25°C/60%RH) and accelerated (40°C/75%RH) conditions for 14 days
[12] = oxidation, in a urea peroxide atmosphere, 14 days
[13] = listed as Form 2 of monohydrochloride

Purity after placing ([1]; 25°C/60%RH/open, 10 months): 99.37%
Sample after placing ([1]; 25°C/60%RH/open, 10 months): Form 1 of monohydrochloride
Purity after placing ([1]; 40°C/75%RH/open, 10 months): 98.63%
Sample after placing ([1]; 40°C/75%RH/open, 10 months): Form 1 of monohydrochloride
time remaining stable [1, 8]: at least 14 days
time remaining stable ([1]; long-term (25°C/60% RH/open) and accelerated (40°C/75% RH/open) conditions, monohydrochloride): at least 10 months
crystal form after storage ([1]; long-term and accelerated conditions for 10 months): remains unchanged
Solubility ([2]; listed as Form 1 of the monohydrochloride salt of tolebrutinib): approximately 8.3 mg/mL
Solubility [2]: 8260 µg/mL
DVS weight change ([3]; between 20% RH to 80% RH at 25 °C): about 1.2%
weight gain (hygroscopicity) ([3]; humidity range of 0%RH to 80%RH): ~0.9%
tensile strength ([4]; calculated with T=2H/πDL*9.8, listed as Form 1 of monohydrochloride): 1.2 MPa
hardness [4, 9]: 6.16 kg
diameters [4, 9]: 7.49 mm
thicknesses [4, 9]: 4.19 mm
time crystal form remains stable in tablets / formulation with excipients [5]: at least 14 days
crystal form before and after the tableting process [6]: remained unchanged
SMILES: C=CC(=O)N1CCC[C@@H](n2c(=O)n(-c3ccc(Oc4ccccc4)cc3)c3c(N)nccc32)C1 [Form 1 of tolebrutinib monohydrochloride, tolebrutinib monohydrochloride]

Purity after ([1]; 25°C/60%RH/open, 14 days): 99.26%
Sample after placing ([1]; 25°C/60%RH/open, 14 days): Form 2 of monohydrochloride
Purity after ([1]; 40°C/75%RH/open, 14 days): 99.30%
Sample after placing ([1]; 40°C/75%RH/open, 14 days): Form 2 of monohydrochloride
time remaining stable [1, 8]: at least 14 days
Purity after [1, 10]: 99.35%
Sample after placing [1, 10]: Form 2 of monohydrochloride
time remaining stable ([1]; long-term (25°C/60% RH/open) and accelerated (40°C/75% RH/open) conditions, listed as Form 2 of monohydrochloride, monohydrochloride): at least 14 days
crystal form after storage [1, 11]: remains unchanged
Purity after [1, 12]: 99.07%
Sample after placing [1, 12]: Form 2 of monohydrochloride
solubility at 2 hours ([2]; water, thermodynamic from solid): ~7000 µg/mL
crystal form before and after DVS ([3]; XRPD before and after DVS): remained unchanged
tensile strength ([4]; calculated with T=2H/πDL*9.8, listed as Form 2 of monohydrochloride): 1.0 MPa
hardness [4, 13]: 5.33 kg
diameters [4, 13]: 7.50 mm
thicknesses [4, 13]: 4.23 mm
time crystal form remains stable in tablets / formulation with excipients [5]: at least 14 days
crystal form before and after the tableting process [6]: remained unchanged
SMILES: C=CC(=O)N1CCC[C@@H](n2c(=O)n(-c3ccc(Oc4ccccc4)cc3)c3c(N)nccc32)C1 [Form 2 of tolebrutinib monohydrochloride, tolebrutinib monohydrochloride]

SMILES: C=CC(=O)N1CCCC(n2c(=O)n(-c3ccc(Oc4ccccc4)cc3)c3c(N)nccc32)C1.O=C(O)C=CC(=O)O (centres unmarked) [maleate Form 1, tolebrutinib maleate]
crystal form after storage [1, 11]: remained the same crystalline form
crystal form after storage [7]: remains unchanged
